Calls of active or inactive are those of the source.

In general, EC50 refers to the concentration giving half of the maximal effect. As usually defined, the IC50 is the concentration that inhibits the measured activity by half. For orientation: Ki means a measure of affinity in units of concentration, obtained from inhibition or displacement. A word on the AC50: it is the concentration at which the activity in the assay is half-maximal.

The test system of one experiment is HT-1080. Briefly: cytotoxicity in HT1080 fibrosarcoma cells, cell-based, fluorescence readout (AID 620). Format: functional. The conditions noted are these: Homo sapiens.
A short description of experiment [1]: cytotoxicity in HEK-293T NF-kB-Luc cells, dose response, cytotoxicity control for B/T-cell NF-kB inhibitor project, cell-based, uHTS hits (AID 489019).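 Further: IC50 reflects cytotoxicity as loss of cell viability.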 Format: functional.
Experiment [2] deals with Cell division cycle 7-related protein kinase (Homo sapiens, UniProt O00311). Format: functional.
Experiment [3] concerns the target Casein kinase II subunit alpha (Homo sapiens, UniProt P68400). Type of experiment: functional.
Experiment [4] deals with Serine/threonine-protein kinase N2 (Homo sapiens, UniProt Q16513). Type of experiment: functional.
Experiment [5] has as its target Tyrosine-protein kinase Fyn (Homo sapiens, UniProt P06241). Type of experiment: functional.
In experiment [6] the target is Cyclin-dependent kinase 7 (Homo sapiens, UniProt P50613). Format: functional.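 Further: value comes from a kinome-wide kinase profiling panel in which CDK7 is one member.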
In experiment [7] the target is Dual specificity mitogen-activated protein kinase kinase 2 (Homo sapiens, UniProt P36507). Briefly: Navigating the Kinome. Panel member name: MAP2K2. Format: functional.
Experiment [8] addresses Dual specificity protein phosphatase 3 (Homo sapiens, UniProt P51452). The experiment is described as follows: VHR1 phosphatase inhibitors, biochemical (AID 1878).
Experiment [9] can be described thus: cytotoxicity toward NIH3T3 fibroblasts, dose response, counter-screen, cell-based, ATP luminescence, mouse fibroblasts (AID 2010).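 Further: cells exposed to compound for about 90 hours before reading.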 Type of experiment: functional. (In general: The purpose of a counterscreen is to sort out artefacts and off-target activity.)
For experiment [10], the target named is T1, Dual specificity protein phosphatase 6 (Rattus norvegicus, UniProt Q64346).
T1 sequence (Q64346 whole entry): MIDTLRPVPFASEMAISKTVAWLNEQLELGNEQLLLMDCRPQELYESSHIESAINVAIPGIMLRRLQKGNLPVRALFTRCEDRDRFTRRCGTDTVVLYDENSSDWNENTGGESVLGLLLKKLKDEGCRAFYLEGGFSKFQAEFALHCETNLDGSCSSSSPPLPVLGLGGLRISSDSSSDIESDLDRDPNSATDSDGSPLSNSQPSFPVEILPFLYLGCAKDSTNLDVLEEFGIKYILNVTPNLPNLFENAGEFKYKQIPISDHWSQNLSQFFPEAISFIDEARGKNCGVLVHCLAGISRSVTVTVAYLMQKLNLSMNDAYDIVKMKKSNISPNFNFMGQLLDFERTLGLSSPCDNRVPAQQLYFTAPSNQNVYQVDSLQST
Briefly: MKP-3 phosphatase inhibitors, primary screen, biochemical, rat enzyme, in vitro (AID 425).

Experiment [11] addresses T2, Protein RecA (Mycobacterium tuberculosis, UniProt P9WHJ3).
T2 sequence (P9WHJ3 whole entry): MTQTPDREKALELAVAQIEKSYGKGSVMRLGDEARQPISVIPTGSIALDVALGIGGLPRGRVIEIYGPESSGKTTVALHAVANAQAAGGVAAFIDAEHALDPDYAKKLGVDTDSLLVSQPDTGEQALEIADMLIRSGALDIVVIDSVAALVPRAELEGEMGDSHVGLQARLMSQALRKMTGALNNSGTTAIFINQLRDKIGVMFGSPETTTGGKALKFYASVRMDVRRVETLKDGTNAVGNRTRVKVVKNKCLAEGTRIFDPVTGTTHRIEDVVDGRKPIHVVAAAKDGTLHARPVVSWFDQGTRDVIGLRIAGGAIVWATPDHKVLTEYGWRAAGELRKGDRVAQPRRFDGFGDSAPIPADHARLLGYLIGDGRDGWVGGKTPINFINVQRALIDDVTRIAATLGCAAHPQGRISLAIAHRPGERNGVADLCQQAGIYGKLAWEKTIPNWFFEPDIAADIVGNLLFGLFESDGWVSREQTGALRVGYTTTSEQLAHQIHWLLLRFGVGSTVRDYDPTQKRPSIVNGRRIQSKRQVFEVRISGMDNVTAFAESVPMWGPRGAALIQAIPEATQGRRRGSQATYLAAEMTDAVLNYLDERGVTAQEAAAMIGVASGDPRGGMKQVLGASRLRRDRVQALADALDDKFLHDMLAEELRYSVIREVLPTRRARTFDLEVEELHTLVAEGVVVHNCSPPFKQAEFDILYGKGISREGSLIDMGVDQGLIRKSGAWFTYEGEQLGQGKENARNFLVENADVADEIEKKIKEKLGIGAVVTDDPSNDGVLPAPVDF
The experiment is described as follows: GFP-RecA MOA-DTT Measured in Biochemical System Using Plate Reader - 2047-05_Inhibitor_Dose_DryPowder_Activity. [Related pubchem assays (depositor defined):AID2223]. The arrangement: species or system Mycobacterium tuberculosis H37Rv.

For experiment [12], the target named is T2, Protein RecA. Briefly: RecA Intein Measured in Biochemical System Using Plate Reader - 2047-02_Inhibitor_Dose_DryPowder_Activity. [Related pubchem assays (depositor defined):AID2223]. The arrangement: species or system Mycobacterium tuberculosis H37Rv.
The target in experiment [13] is Dual specificity tyrosine-phosphorylation-regulated kinase 1A (Rattus norvegicus, UniProt Q63470). Type of experiment: biochemical, Homo sapiens.
A short description of experiment [14]: inhibitors of PGC1a acetylation in cells, dose response, cell-based, cherry-picked samples (AID 720514).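 Further: potency may reflect raised or lowered acetylation signal.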 Format: functional.

Chain of Casein kinase II subunit alpha (P68400 whole entry): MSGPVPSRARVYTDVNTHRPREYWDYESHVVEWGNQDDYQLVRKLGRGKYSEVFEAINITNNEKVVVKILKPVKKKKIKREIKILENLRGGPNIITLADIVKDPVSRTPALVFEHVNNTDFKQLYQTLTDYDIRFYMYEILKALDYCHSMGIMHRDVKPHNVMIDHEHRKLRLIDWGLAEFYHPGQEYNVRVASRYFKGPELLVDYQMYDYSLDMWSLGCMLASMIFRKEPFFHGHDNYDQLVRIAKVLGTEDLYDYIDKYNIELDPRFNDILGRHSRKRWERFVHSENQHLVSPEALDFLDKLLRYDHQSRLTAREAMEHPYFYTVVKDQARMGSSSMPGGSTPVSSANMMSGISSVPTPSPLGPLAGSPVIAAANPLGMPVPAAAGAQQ
Chain of Serine/threonine-protein kinase N2 (Q16513 whole entry): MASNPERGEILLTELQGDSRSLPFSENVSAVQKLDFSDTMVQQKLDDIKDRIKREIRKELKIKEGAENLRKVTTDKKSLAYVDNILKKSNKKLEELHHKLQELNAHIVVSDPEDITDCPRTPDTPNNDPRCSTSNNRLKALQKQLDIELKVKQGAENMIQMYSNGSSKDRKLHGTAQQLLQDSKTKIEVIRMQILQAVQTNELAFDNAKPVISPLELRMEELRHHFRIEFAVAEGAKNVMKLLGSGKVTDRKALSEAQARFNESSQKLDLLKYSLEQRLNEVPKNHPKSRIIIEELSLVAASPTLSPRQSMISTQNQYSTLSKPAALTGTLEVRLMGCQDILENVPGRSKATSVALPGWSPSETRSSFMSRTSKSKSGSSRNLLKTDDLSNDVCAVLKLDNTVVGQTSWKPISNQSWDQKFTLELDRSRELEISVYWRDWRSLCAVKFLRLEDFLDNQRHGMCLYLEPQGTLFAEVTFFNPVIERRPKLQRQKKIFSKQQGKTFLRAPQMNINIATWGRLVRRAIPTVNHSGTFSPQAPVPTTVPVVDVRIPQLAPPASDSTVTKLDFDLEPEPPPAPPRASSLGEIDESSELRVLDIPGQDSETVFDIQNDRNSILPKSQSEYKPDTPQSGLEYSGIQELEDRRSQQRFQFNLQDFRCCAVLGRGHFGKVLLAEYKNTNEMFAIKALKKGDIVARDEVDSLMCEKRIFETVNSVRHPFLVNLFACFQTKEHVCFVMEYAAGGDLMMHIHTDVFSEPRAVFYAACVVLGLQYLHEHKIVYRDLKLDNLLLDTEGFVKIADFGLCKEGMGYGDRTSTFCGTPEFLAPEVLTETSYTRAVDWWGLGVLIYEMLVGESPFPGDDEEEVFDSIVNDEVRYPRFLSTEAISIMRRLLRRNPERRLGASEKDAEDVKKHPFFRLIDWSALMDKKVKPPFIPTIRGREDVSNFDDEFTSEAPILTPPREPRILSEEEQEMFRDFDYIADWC
Chain of Dual specificity protein phosphatase 3 (P51452 whole entry): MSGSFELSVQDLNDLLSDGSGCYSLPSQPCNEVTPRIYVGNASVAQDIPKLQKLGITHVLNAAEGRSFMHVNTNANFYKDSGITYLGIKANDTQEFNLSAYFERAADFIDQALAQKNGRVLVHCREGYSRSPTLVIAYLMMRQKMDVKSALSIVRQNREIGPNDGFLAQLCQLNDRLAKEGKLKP
Chain of Dual specificity mitogen-activated protein kinase kinase 2 (P36507 whole entry): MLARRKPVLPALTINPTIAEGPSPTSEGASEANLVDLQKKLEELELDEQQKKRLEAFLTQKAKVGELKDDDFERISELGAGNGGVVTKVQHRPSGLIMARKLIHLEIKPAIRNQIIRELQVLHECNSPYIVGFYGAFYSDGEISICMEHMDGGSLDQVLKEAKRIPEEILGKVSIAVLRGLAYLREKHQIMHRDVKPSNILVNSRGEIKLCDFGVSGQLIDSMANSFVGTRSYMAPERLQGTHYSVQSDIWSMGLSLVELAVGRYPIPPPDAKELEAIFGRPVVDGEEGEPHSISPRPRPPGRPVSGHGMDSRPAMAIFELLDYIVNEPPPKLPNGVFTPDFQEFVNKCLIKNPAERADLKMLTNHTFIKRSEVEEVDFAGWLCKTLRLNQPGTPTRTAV
Chain of Cell division cycle 7-related protein kinase (O00311 whole entry): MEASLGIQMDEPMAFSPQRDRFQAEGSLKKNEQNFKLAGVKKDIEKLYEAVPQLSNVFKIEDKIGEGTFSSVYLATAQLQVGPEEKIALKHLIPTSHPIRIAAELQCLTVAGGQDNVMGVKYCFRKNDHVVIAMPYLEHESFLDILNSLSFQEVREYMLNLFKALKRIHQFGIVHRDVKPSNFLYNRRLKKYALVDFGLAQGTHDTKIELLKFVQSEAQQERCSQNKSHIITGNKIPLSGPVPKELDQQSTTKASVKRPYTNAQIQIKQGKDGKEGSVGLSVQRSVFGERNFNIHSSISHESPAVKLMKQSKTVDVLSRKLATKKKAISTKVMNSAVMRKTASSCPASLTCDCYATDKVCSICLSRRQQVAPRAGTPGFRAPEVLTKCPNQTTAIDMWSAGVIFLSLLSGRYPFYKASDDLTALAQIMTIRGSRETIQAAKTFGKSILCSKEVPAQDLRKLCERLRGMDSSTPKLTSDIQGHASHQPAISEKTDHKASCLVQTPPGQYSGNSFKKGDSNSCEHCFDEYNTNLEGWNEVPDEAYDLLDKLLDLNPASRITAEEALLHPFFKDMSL
Chain of Cyclin-dependent kinase 7 (P50613 whole entry): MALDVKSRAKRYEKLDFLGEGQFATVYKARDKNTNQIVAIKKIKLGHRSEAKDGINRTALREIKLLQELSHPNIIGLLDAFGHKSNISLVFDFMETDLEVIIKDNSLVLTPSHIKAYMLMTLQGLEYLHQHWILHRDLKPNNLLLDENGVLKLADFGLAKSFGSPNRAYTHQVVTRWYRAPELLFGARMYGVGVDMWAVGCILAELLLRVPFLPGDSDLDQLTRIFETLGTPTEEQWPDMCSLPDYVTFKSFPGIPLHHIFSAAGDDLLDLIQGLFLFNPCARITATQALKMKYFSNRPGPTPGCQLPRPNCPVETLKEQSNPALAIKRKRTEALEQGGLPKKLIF
Chain of Tyrosine-protein kinase Fyn (P06241 whole entry): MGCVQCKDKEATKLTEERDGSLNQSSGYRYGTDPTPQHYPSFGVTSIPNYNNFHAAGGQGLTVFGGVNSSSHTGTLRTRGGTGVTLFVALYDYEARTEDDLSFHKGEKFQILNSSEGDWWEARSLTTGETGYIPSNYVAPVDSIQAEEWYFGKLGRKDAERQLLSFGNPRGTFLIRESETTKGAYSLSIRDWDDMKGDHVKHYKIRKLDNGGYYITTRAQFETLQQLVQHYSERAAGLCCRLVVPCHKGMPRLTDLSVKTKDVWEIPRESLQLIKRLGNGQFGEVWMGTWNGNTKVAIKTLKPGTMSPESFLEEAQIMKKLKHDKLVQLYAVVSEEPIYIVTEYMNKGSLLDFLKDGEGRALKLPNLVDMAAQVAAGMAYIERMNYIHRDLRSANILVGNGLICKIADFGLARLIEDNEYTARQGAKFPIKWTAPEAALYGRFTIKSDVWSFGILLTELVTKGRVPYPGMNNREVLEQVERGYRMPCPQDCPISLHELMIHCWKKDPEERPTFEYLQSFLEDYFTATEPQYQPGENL

For the molecule `CC(C)c1ccc(-c2nnn(CCC(=O)O)n2)cc1`, the EC50 in the experiment on HT-1080 is recorded as > 50 µM (not active). The IC50 in experiment [1] was > 80 µM (inactive).

As to `COc1cc2c(cc1Nc1nc(Nc3cccc(F)c3C(N)=O)c3cc[nH]c3n1)N(C(=O)CN(C)C)CC2`, the Ki was 631 nM (active) in [2]; 631 nM (active) in experiment [3]; > 7.94 µM (inactive) in experiment [4]; > 6.31 µM (inactive) in [5]; 2.51 µM (active) in experiment [6]; > 3.98 µM (inactive) in [7].

`CCn1nc(/C=C/c2ccccc2)nc2c(=O)n(C)c(=O)nc1-2`: the IC50 in experiment [8] was 106 µM (inactive); in [10], < 1.23 µM (not active). Moreover, the EC50 in experiment [9] is 1.02 µM (active). In addition, the AC50 on Protein RecA [11] is 65 nM (active); at Protein RecA [12] it was 60 nM (active); in experiment [13], 281 nM (active); in experiment [14], 2.87 µM (active).
